From patent US8901301B2, “Pyrrolo[2,3-]pyridine kinase inhibitors” (Plexxikon Inc., priority 2009, dated 2014)

Tests used:
B-Raf V600E = target: T1, B-Raf V600E (Homo sapiens, UniProt P15056, V600E); experiment: Raf biochemical kinase assay (biotin-MEK1 phosphorylation), B-Raf V600E; conditions: 100 μM ATP
T1 construct: purchased Upstate Biotechnology
Description: Assays for biochemical and cell based activity are known in the art, for example, as described in PCT publication WO 2007/002433, the disclosure of which is hereby incorporated by reference as it relates to such assays. For example, the biochemical activity IC50 values are determined with respect to inhibition of A-Raf kinase activity, B-Raf kinase activity, c-Raf-1 kinase activity, or B-Raf V600E kinase activity, where inhibition of phosphorylation of a peptide substrate is measured as a function of compound concentration. Compounds to be tested are diluted in dimethyl sulfoxide to a concentration of 0.1 mM. These are serially diluted 15 μL into 30 μL of dimethyl sulfoxide seven times in 96 well plates for a total of 8 dilution points, and for each dilution point 1 μL is added to a well of an assay plate. Plates are prepared such that each well in a 384 well plate contains 1 μL of compound in 10 μL volume with 0.1 ng Raf enzyme (i.e. any of A-Raf, B-Raf, c-Raf-1 or B-Raf V600E, Upstate Biotechnology or prepared by methods known to one of skill in the art), 50 mM HEPES, pH 7.0, 50 mM NaCl, 2 mM MgCl2, 1 mM MnCl2, 0.01% Tween-20, 1 mM DTT, and 100 nM biotin-MEK1 as substrate. The reaction is started with addition of 10 μL of 200 μM ATP (i.e. final 100 μM ATP). After incubation of the kinase reaction for 45 minutes at room temperature, 5 μL/well of Stop Solution is added (25 mM Hepes pH 7.5, 100 mM EDTA, 0.01% BSA with donor beads (Streptavidin coated beads, Perkin Elmer), acceptor beads (Protein A coated, Perkin Elmer), and anti phosphor MEK1/2 antibody (CellSignal), each at final concentration 10 μg/mL). The plates are incubated for 3 hours at room temperature and read on Envision reader (Perkin Elmer). Phosphorylation of Mek1 results in binding of the anti-phosphor-MEK1/2 antibody and association of the donor and acceptor beads such that signal correlates with kinase activity. The signal vs. compound concentration is used to determine the IC50.

A375 cells = experiment: Cell growth inhibition (Cell Titer Glo), A375; format: cell-based; conditions: Homo sapiens, A-375, 72 h; B-Raf V600E cell line, 3 days
Description: Compounds are assessed in a variety of cell based assays, employing cells with or without B-Raf V600E mutation, for example cell lines with B-Raf V600E mutation (A375 and COLO205), as well as tumorigenic cell lines with wild-type B-RAF (SW620 and SK-MEL-2). Reagent and assay conditions are as follows:
A375 cells growth medium: • Dulbecco's modified Eagle's medium, 4 mM L-glutamine, 4.5 g/L D-glucose, 10% fetal bovine serum.
SK-MEL-2 cells growth medium: • Minimum Eagle essential medium, 2 mM L-glutamine, 1.5 g/L sodium bicarbonate, 0.1 mM non-essential amino acids, 1.0 mM sodium pyruvate, 10% fetal bovine serum. • On day 1, cells are seeded in growth media in 200 μL per well in a 96-well polystyrene tissue culture plate at 2,000 cells per well (A375, COLO205, SK-MEL-2) or 5,000 cells per well for SW620, and incubated at 37° C. and 5% CO2 overnight. • On day 2, compound at 4 mM in dimethyl sulfoxide is serially diluted 1:4 (10 μL with 30 μL dimethyl sulfoxide) seven times for a total of 8 concentration points. For each dilution point a 1 μL aliquot is added to a well containing cells (highest dilution point at 20 μM), with 1 μL of dimethyl sulfoxide as a negative control (each sample at 0.5% dimethyl sulfoxide). The cells are incubated for 3 days at 37° C. in 5% CO2. • On day 5, Cell Titer Glo (Promega) is thawed and added 100 μL to each well and the plate shaken for 1-2 minutes. The plates are incubated for 10 minutes at room temperature, then […] signal is read (e.g. on Safire reader). The measured fluoresence correlates directly with cell number, such that the reading as a function of compound concentration is used to determine the IC50 value.

[1] = system: Colo205 colorectal tumor cells with BRaf V600E mutation; experiment: Colo205 xenograft mouse model; format: in vivo; conditions: female nu/nu mice, 10 mg/kg daily for fourteen days, vs vehicle control
Description: Female nu/nu mice are implanted with Colo-205 trocar fragments from donor mice, sub-cutaneous and high in the axilla. Tumor growth is monitored to approximately 100 mg size, and mice are distributed to treatment groups such that the mean tumor burden within a group is within 10% of the overall mean tumor burden. Mice are treated with vehicle control, positive control or compound (8 mice per group) in 5% DMSO and 95% CMC (1%), with compound dosed at 10 mg/kg daily for fourteen days. Mice are observed daily, with tumor burden and body weights measured twice a week. Animals with tumor burden above 1500-2000 mg and any animals in moribund condition are euthanized. The average tumor growth of vehicle control group mice is compared to the average tumor growth of the test compound mice. Percent tumor growth inhibition is calculated as 100×[(tumor growth control-tumor growth test compound)/tumor growth control].

CYP2C19 = target: T2, CYP2C19 (Homo sapiens, UniProt P33261); experiment: CYP inhibition (fluorescent substrate), CYP2C19; format: in vitro ADME; conditions: substrate CEC; read-out: Cyp IC50 (μM) 2C19
T2 construct: purchased BD Biosciences
Description: (§1) CYP (Cytochrome P450) enzymes are the major drug metabolizing enzymes present in the liver. The inhibition of CYP enzyme activity (IC50) for each of CYP1A2, CYP2C19, CYP2C9, CYP2D6, CYP3A4(BFC) and CYP3A4(BQ) is determined for compounds, where inhibition of metabolism of a known substrate leads to a decrease in the fluorescence of the metabolized product. The fluorescence of the product is monitored as a function of compound concentration. Compounds are dissolved in dimethyl sulfoxide to a concentration of 100 mM. These are diluted 1 μL into 82 μL of acetonitrile. An 11 μL aliquot of this solution is then added to 204 μL of cofactor mix (1.3% NADPH Regeneration system Solution A, 1.04% NADPH Regeneration system Solution B from BD Biosciences, 5% acetonitrile and 0.05% dimethyl sulfoxide). These are then serially diluted 1:1 (160 μL to 160 μL co-factor mix) for a total of 10 points. A 10 μL aliquot of this final mixture is dispensed into 384 well assay plates and incubated for 10 minutes at 37° C. […] Assay plates are incubated at 37° C. (CYP1A2-15 min; CYP2C9-45 min; CYP2C19, 2D6 and 3A4-30 min) and read in a Tecan Safire 2 plate reader (CYP1A2, 2C19 and 3A4 409 ex/460 em; CYP2C9 and 2D6 409 ex/530 em). The signal versus compound concentration is used to determine the IC50. The enzymes and substrates for this assay are obtained from BD Biosciences.

CYP2D6 = target: T3, CYP2D6 (Homo sapiens, UniProt P10635); experiment: CYP inhibition (fluorescent substrate), CYP2D6; format: in vitro ADME; conditions: substrate AMMC; read-out: Cyp IC50 (μM) 2D6
T3 construct: purchased BD Biosciences
Description: as §1

T3 sequence (P10635 whole entry): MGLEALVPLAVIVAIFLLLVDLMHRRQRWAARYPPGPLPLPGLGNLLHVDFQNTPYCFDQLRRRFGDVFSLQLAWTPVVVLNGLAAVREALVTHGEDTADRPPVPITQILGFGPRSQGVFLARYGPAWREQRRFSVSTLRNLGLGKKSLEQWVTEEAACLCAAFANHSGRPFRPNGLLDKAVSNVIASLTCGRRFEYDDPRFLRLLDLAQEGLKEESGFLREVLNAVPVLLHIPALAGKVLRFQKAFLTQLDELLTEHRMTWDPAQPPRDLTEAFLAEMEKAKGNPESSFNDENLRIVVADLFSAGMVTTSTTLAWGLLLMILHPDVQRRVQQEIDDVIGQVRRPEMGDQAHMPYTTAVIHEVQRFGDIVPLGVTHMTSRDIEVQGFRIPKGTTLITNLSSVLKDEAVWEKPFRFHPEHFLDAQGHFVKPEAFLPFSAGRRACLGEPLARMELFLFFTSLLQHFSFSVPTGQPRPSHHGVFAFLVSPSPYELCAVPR
T2 sequence (P33261 whole entry): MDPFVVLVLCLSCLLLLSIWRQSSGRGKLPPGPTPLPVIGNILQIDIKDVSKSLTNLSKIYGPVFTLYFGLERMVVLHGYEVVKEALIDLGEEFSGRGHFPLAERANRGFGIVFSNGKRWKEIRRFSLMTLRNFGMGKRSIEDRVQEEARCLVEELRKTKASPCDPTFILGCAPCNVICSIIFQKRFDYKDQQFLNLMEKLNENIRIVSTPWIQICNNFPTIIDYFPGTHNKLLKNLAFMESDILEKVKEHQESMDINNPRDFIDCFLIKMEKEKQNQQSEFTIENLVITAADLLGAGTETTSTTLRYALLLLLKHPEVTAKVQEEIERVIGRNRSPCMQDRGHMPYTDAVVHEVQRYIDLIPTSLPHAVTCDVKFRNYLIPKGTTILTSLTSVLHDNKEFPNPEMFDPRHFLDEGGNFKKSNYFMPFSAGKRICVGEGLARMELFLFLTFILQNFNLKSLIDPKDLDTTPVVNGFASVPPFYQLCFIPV
T1 sequence (P15056 whole entry V600E): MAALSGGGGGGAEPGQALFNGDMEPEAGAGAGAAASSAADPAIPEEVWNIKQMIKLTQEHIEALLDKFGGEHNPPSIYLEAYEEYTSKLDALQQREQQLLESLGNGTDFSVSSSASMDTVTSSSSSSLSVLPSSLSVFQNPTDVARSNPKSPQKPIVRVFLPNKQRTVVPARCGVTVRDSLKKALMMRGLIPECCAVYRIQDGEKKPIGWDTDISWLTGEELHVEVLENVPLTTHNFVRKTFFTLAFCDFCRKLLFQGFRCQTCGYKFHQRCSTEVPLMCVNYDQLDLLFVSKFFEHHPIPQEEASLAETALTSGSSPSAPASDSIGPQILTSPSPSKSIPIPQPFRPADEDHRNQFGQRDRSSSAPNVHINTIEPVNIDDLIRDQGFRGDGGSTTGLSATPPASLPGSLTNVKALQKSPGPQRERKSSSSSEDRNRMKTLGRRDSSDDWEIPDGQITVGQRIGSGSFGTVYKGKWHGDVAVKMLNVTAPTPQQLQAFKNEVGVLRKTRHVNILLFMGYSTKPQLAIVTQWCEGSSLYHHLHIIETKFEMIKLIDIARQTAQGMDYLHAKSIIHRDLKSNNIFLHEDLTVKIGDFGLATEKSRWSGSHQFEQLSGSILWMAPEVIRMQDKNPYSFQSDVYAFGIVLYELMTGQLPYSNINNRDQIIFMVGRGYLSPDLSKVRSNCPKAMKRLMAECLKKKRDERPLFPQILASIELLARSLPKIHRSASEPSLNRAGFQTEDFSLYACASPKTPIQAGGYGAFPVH

SMILES | IC50 (B-Raf V600E) | IC50 (A375 cells) | IC50 (CYP2C19) | IC50 (CYP2D6) | % Tumor growth inhibition [1]
N#Cc1cnc2[nH]cc(C(=O)c3c(F)ccc(NS(=O)(=O)c4cccc(F)c4)c3F)c2c1 [Compound P-0005, N-[3-(5-cyano-1H-pyrrolo[2,3-b]pyridine-3-carbonyl)-2,4-difluoro-phenyl]-3-fluoro-benzenesulfonamide] | < 0.01 µM | < 1 µM | > 10 µM | > 10 µM | 88%
CCCS(=O)(=O)Nc1cccc(C(=O)c2c[nH]c3ncc(C#N)cc23)c1F [Compound P-0003, propane-1-sulfonic acid [3-(5-cyano-1H-pyrrolo[2,3-b]pyridine-3-carbonyl)-2-fluoro-phenyl]-amide] | ~0.1 µM | < 2 µM | > 10 µM | > 10 µM | 91%
CN(C)S(=O)(=O)Nc1ccc(F)c(C(=O)c2c[nH]c3ncc(C#N)cc23)c1F [Compound P-0007, N,N-dimethylamino-sulfonic acid [3-(5-cyano-1H-pyrrolo[2,3-b]pyridine-3-carbonyl)-2,4-difluoro-phenyl]-amide] | < 0.01 µM | < 2 µM | > 10 µM | > 10 µM | 86%
CCCS(=O)(=O)Nc1ccc(F)c(C(=O)c2c[nH]c3ncc(-c4cnc(OC)nc4)cc23)c1F [Compound P-0001, propane-1-sulfonic acid {2,4-difluoro-3-[5-(2-methoxy-pyrimidin-5-yl)-1H-pyrrolo[2,3-b]pyridine-3-carbonyl]-phenyl}-amide] | < 0.01 µM | < 1 µM | > 10 µM | > 10 µM | 43%

The next lines start with results.

IC50 (B-Raf V600E) | IC50 (A375 cells) | IC50 (CYP2C19) | IC50 (CYP2D6) | SMILES | % Tumor growth inhibition [1]
< 0.01 µM | < 1 µM | > 10 µM | > 10 µM | N#Cc1cnc2[nH]cc(C(=O)c3c(F)ccc(NS(=O)(=O)N4CCCC4)c3F)c2c1 [Compound P-0006, pyrrolidine-1-sulfonic acid [3-(5-cyano-1H-pyrrolo[2,3-b]pyridine-3-carbonyl)-2,4-difluoro-phenyl]-amide] | 82%
< 0.01 µM | < 1 µM | > 10 µM | > 10 µM | N#Cc1cnc2[nH]cc(C(=O)c3c(F)ccc(NS(=O)(=O)c4cc(F)ccc4F)c3F)c2c1 [Compound P-0004, N-[3-(5-cyano-1H-pyrrolo[2,3-b]pyridine-3-carbonyl)-2,4-difluoro-phenyl]-2,5-difluoro-benzenesulfonamide] | 103%
< 0.01 µM | < 1 µM | 5 to 10 µM | > 10 µM | CCCS(=O)(=O)Nc1ccc(F)c(C(=O)c2c[nH]c3ncc(C#N)cc23)c1F [Compound P-0002, propane-1-sulfonic acid [3-(5-cyano-1H-pyrrolo[2,3-b]pyridine-3-carbonyl)-2,4-difluoro-phenyl]-amide] | 80%
